Experimental data published in a flash point compilation (Sun et al. 2020).

| SMILES | flash point |
| --- | --- |
| C=C1CC(=O)O1 [4-methylideneoxetan-2-one] | 34.00 °C |
| CC(=O)C=C(C)C [4-methylpent-3-en-2-one] | 23.00 °C |
| CC(=O)CC(C)C [4-methylpentan-2-one] | 23.00 °C |
| CCCCCCCCc1ccc(O)cc1 [4-octylphenol] | 113.00 °C |
| CCC1(c2ccccc2)C(=O)NC(=O)NC1=O [5-ethyl-5-phenyl-1,3-diazinane-2,4,6-trione] | 174.00 °C |
| Cc1cnc[nH]1 [5-methyl-1H-imidazole] | 157.00 °C |
| C=CCc1ccc2c(c1)OCO2 [5-prop-2-enyl-1,3-benzodioxole] | 98.00 °C |
| CC1=C(C(=O)Nc2ccccc2)SCCO1 [6-methyl-N-phenyl-2,3-dihydro-1,4-oxathiine-5-carboxamide] | 203.00 °C |
| Cc1c2ccccc2c(C)c2c1ccc1ccccc12 [7,12-dimethylbenzo[a]anthracene] | 86.00 °C |
| CC(C)(C)c1ccccc1OP(=O)(Oc1ccccc1)Oc1ccccc1 [(2-tert-butylphenyl) diphenyl phosphate] | 224.00 °C |
| C1O[C@H]1[C@H]1CO1 [(2R)-2-[(2R)-oxiran-2-yl]oxirane] | 46.00 °C |
| O=C/C=C/c1ccccc1 [(E)-3-phenylprop-2-enal] | 71.00 °C |
| CCCCCCCC/C=C\CCCCCCCC(=O)O [(Z)-octadec-9-enoic acid] | 189.00 °C |
| CSSC [(methyldisulfanyl)methane] | 24.00 °C |
| NCCNCCN [N'-(2-aminoethyl)ethane-1,2-diamine] | 102.00 °C |
| CN(C)CCN(C)C [N,N,N',N'-tetramethylethane-1,2-diamine] | 10.00 °C |
| C=CCN(CC=C)CC=C [N,N-bis(prop-2-enyl)prop-2-en-1-amine] | 39.00 °C |
| CCCCN(CCCC)CCCC [N,N-dibutylbutan-1-amine] | 85.00 °C |
| CCN(CC)N=O [N,N-diethylnitrous amide] | 63.00 °C |
| CN(C)C1CCCCC1 [N,N-dimethylcyclohexanamine] | 42.00 °C |
| CN(C)N=O [N,N-dimethylnitrous amide] | 61.00 °C |
| CCCN(CCC)CCC [N,N-dipropylpropan-1-amine] | 37.00 °C |
| CCCCOCN(C(=O)CCl)c1c(CC)cccc1CC [N-(butoxymethyl)-2-chloro-N-(2,6-diethylphenyl)acetamide] | 114.00 °C |
| CCCCN(CC)N=O [N-butyl-N-ethylnitrous amide] | 93.00 °C |

| SMILES | flash point |
| --- | --- |
| CCCCN(C)N=O [N-butyl-N-methylnitrous amide] | 32.00 °C |
| CCCCNC1CCCCC1 [N-butylcyclohexanamine] | 93.00 °C |
| O=[N+]([O-])N(Cl)c1ccccc1 [N-chloro-N-phenylnitramide] | 205.00 °C |
| CCNC1CCCCC1 [N-ethylcyclohexanamine] | 29.00 °C |
| CNC(C)Cc1ccccc1 (stereo unspecified) [N-methyl-1-phenylpropan-2-amine] | 9.00 °C |
| CNc1ccccc1 [N-methylaniline] | 79.00 °C |
| c1ccc(Nc2ccccc2)cc1 [N-phenylaniline] | 153.00 °C |
| CCSC(=O)N1CCCCCC1 [S-ethyl azepane-1-carbothioate] | 139.00 °C |
| CCCCN(CC)C(=O)SCCC [S-propyl N-butyl-N-ethylcarbamothioate] | 51.00 °C |
| CCSCc1ccccc1OC(=O)NC [[2-(ethylsulfanylmethyl)phenyl] N-methylcarbamate] | 123.00 °C |
| NCc1cccc(CN)c1 [[3-(aminomethyl)phenyl]methanamine] | 117.00 °C |
| COC(=O)Nc1cccc(OC(=O)Nc2cccc(C)c2)c1 [[3-(methoxycarbonylamino)phenyl] N-(3-methylphenyl)carbamate] | 74.00 °C |
| Br/C=C/c1ccccc1 [[(E)-2-bromoethenyl]benzene] | 79.00 °C |
| CCC[CH2][Sn]([CH2]CCC)([O]C(C)=O)[O]C(C)=O [[acetyloxy(dibutyl)stannyl] acetate] | 143.00 °C |
| CCCCCCCCCCCC(=O)[O][Sn]([CH2]CCC)([CH2]CCC)[O]C(=O)CCCCCCCCCCC [[dibutyl(dodecanoyloxy)stannyl] dodecanoate] | 235.00 °C |
| C1=Cc2cccc3cccc1c23 [acenaphthylene] | 122.00 °C |
| CC=O [acetaldehyde] | -40.00 °C |
| CC(=O)O [acetic acid] | 40.00 °C |
| Cl.Nc1ccccc1 [aniline;hydrochloride] | 193.00 °C |
| O=C1c2ccccc2C(=O)c2ccccc21 [anthracene-9,10-dione] | 185.00 °C |
| c1ccc2cc3ccccc3cc2c1 [anthracene] | 121.00 °C |
| Cc1ccc([N+](=O)[O-])cc1.N.Nc1cccc([N+](=O)[O-])c1.Nc1ccccc1[N+](=O)[O-] [azane;1-methyl-4-nitrobenzene;2-nitroaniline;3-nitroaniline] | 154.00 °C |
| Nc1ccccc1N [benzene-1,2-diamine] | 156.00 °C |

The remaining lines, values ahead:

| flash point | SMILES |
| --- | --- |
| 70.00 °C | CC1CCC(O)CC1 (stereo unspecified) [4-methylcyclohexan-1-ol] |
| -34.00 °C | C=CC=C(C)C [4-methylpenta-1,3-diene] |
| 41.00 °C | CC(C)CC(C)O (stereo unspecified) [4-methylpentan-2-ol] |
| 68.00 °C | CCc1ccc(C)nc1 [5-ethyl-2-methylpyridine] |
| 26.00 °C | CC=C1CC2C=CC1C2 (stereo unspecified) [5-ethylidenebicyclo[2.2.1]hept-2-ene] |
| 36.00 °C | CC(=O)CCC(C)C [5-methylhexan-2-one] |
| 31.00 °C | C=C1CCC2CC1C2(C)C (stereo unspecified) [6,6-dimethyl-2-methylidenebicyclo[3.1.1]heptane] |
| 107.00 °C | CCOc1ccc2c(c1)C(C)=CC(C)(C)N2 [6-ethoxy-2,2,4-trimethyl-1H-quinoline] |
| 130.00 °C | Cc1ccc2oc(=O)ccc2c1 [6-methylchromen-2-one] |
| 69.00 °C | CC(C)CCCCCOC(=O)COc1cc(Cl)c(Cl)cc1Cl [6-methylheptyl 2-(2,4,5-trichlorophenoxy)acetate] |
| 110.00 °C | Cc1ccc2cccnc2c1 [7-methylquinoline] |
| 121.00 °C | C=C(C)C(=O)OCCCCCCCC(C)C [8-methylnonyl 2-methylprop-2-enoate] |
| 105.00 °C | Cc1cccc2cccnc12 [8-methylquinoline] |
| 35.00 °C | C1=C\CCCC\C=C/1 [(1Z,3Z)-cycloocta-1,3-diene] |
| 80.00 °C | CC1(C)OCC(CO)O1 (stereo unspecified) [(2,2-dimethyl-1,3-dioxolan-4-yl)methanol] |
| 115.00 °C | C=CC(=O)OCC(C)(C)COC(=O)C=C [(2,2-dimethyl-3-prop-2-enoyloxypropyl) prop-2-enoate] |
| 102.00 °C | CCCCCCCC(=O)Oc1c(Br)cc(C#N)cc1Br [(2,6-dibromo-4-cyanophenyl) octanoate] |
| 283.00 °C | OC[C@@H](O)[C@@H](O)[C@H](O)[C@@H](O)CO [(2R,3R,4R,5S)-hexane-1,2,3,4,5,6-hexol] |
| 107.00 °C | CC(C)=CCC/C(C)=C\CO [(2Z)-3,7-dimethylocta-2,6-dien-1-ol] |
| 120.00 °C | CC(C)C(=O)OCC(C)(C)C(O)C(C)C (stereo unspecified) [(3-hydroxy-2,2,4-trimethylpentyl) 2-methylpropanoate] |
| 40.00 °C | CN(C)C(=O)/N=N/C(=O)N(C)C [(3E)-3-(dimethylcarbamoylimino)-1,1-dimethylurea] |
| -29.00 °C | C=C/C=C/C [(3E)-penta-1,3-diene] |

| flash point | SMILES |
| --- | --- |
| 112.00 °C | CC1CCC(CO)CC1 (stereo unspecified) [(4-methylcyclohexyl)methanol] |
| 48.00 °C | C=C(C)[C@H]1CC=C(C)CC1 [(4R)-1-methyl-4-prop-1-en-2-ylcyclohexene] |
| 273.00 °C | O=C(O)/C=C/C(=O)O [(E)-but-2-enedioic acid] |
| 96.00 °C | NC(=O)/N=N/C(N)=O [(E)-carbamoyliminourea] |
| 25.00 °C | C1=CCC=C1 [InChI=1S/C5H6/c1-2-4-5-3-1/h1-4H,5H2] |
| 36.00 °C | CNCCCN [N'-methylpropane-1,3-diamine] |
| 83.00 °C | Cc1ccccc1N(C)C [N,N,2-trimethylaniline] |
| 77.00 °C | CCN(CC)C(C)=O [N,N-diethylacetamide] |
| 57.00 °C | CN(C)Cc1ccccc1 [N,N-dimethyl-1-phenylmethanamine] |
| 102.00 °C | CCCCCN(CCCCC)CCCCC [N,N-dipentylpentan-1-amine] |
| 171.00 °C | CC(=O)CC(=O)Nc1ccc(C)cc1C [N-(2,4-dimethylphenyl)-3-oxobutanamide] |
| 85.00 °C | CCNc1ccccc1 [N-ethylaniline] |
| 18.00 °C | CCCCNCC [N-ethylbutan-1-amine] |
| 108.00 °C | CNC(C)=O [N-methylacetamide] |
| 51.00 °C | CCCCCNCCCCC [N-pentylpentan-1-amine] |
| 88.00 °C | CC(C)Nc1ccccc1 [N-propan-2-ylaniline] |
| 116.00 °C | CCSC(=O)N(CC(C)C)CC(C)C [S-ethyl N,N-bis(2-methylpropyl)carbamothioate] |
| 116.00 °C | CCCN(CCC)C(=O)SCC [S-ethyl N,N-dipropylcarbamothioate] |
| 166.00 °C | OCC1CCC(CO)CC1.OCC1CCC(CO)CC1 (stereo unspecified) [[4-(hydroxymethyl)cyclohexyl]methanol] |
| 99.00 °C | CC(=O)OCN=[N+](C)[O-] [acetyloxymethylimino-methyl-oxidoazanium] |
| 125.00 °C | O=C1CCCCCN1 [azepan-2-one] |
| 37.00 °C | C1CCCNCC1 [azepane] |
